Measured values as given in article PMC10011747, “Targeting androgen receptor and the variants by an orally bioavailable Proteolysis Targeting Chimeras compound in castration resistant prostate cancer” (eBioMedicine, 2023).

Biological target: T1, full-length AR (Homo sapiens, UniProt P10275, T878A)
T1 construct: calculated based on normalized full-length AR and AR-V7 band intensity; endogenous in cells; host or cells: LNCaP, CWR22Rv1, VCaP
T1 sequence (P10275 1-920 T878A): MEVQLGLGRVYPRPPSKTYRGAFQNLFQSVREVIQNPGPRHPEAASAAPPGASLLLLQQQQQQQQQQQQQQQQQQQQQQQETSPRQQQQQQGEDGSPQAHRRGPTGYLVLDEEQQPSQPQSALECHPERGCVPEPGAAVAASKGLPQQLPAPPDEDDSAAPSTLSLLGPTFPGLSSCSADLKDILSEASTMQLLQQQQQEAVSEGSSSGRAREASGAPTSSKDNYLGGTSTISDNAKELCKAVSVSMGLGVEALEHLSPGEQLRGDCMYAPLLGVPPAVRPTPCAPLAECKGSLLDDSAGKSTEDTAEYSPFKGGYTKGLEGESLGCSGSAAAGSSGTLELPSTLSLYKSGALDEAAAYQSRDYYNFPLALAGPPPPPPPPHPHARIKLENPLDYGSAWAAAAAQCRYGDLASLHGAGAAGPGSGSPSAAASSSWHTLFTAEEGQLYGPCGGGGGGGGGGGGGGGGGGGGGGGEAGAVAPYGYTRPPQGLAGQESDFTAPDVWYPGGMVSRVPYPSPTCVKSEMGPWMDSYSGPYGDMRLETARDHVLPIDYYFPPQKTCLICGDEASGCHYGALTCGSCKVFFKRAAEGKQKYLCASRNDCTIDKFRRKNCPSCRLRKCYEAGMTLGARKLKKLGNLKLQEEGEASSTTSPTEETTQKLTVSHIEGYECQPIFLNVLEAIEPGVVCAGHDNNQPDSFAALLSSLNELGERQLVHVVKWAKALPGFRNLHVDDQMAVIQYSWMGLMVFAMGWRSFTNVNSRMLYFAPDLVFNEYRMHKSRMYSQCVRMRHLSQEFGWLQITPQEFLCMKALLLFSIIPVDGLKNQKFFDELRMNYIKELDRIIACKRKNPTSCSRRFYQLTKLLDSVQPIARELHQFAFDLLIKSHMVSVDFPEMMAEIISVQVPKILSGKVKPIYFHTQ
Assay: AR degradation by western blot in prostate cancer cell lines
Assay type: cell-based
Details: LNCaP cells; for DC50: 24 h treatment; for Dmax at 20 µM: maximum degradation at 20 μM
Procedure: To obtain total lysates, cells were lysed in RIPA buffer (50 mM Tris–HCl pH 8.0, 150 mM NaCl, 1% NP-40, 0.5% Na-deoxycholate, 0.5% SDS plus protease inhibitors). The lysates were resolved by SDS-polyacrylamide gel electrophoresis, and the protein expression was analyzed by western blotting using primary antibodies against AR (Millipore Cat# 06-680, RRID:AB_310214), AR-V7 (RevMAb Biosciences Cat# 31-1109-00, RRID:AB_2716436), GAPDH (Cell Signaling Technology Cat# 2118, RRID:AB_561053) and Actin (Sigma–Aldrich Cat# A5441, RRID:AB_476744). pLenti4/TO/Flag-AR or pLenti4/TO/Flag-TC-AR plasmid was co-transfected with HA-ubiquitin plasmid into 293T cells. 24 h after transfection, the cells were treated with 10 μM of the PROTAC compounds for 16 h, followed by 4-h treatment of 5 μM MG132. The cells were lysed with lysis buffer (50 mM Tris–HCl pH7.5, 150 mM NaCl, 0. 5% Triton X-100, 10% glycerol, 1 mM EDTA plus protease inhibitors) containing 1 ng/mL of N-ethylmaleimide, followed by immunoprecipitation with anti-Flag M2 (Sigma–Aldrich Cat# F3165, RRID:AB_259529) antibody. The ubiquitinated AR was then detected by western blotting using anti-HA (Sigma–Aldrich Cat# H3663, RRID:AB_262051) antibody.
Fig. 1 PROTAC-based AR degraders ITRI-90, ITRI-125 and ITRI-126 reduce AR and AR-V7 proteins in prostate cancer cell lines. (a) Chemical structure of the PROTAC AR degraders. (b) Representative western blots of AR protein levels in LNCaP, CWR22Rv1 and VCaP cells treated with the PROTAC degraders for 24 h. AR was detected by N-terminal antibody which also detects C-terminal truncated AR-V(ΔLBD) in CWR22Rv1 cells. AR-V7 specific antibody was used for AR-V7 detection. 4%–12% gradient gel was used to separate different species of AR-V(ΔLBD) near 75 kDa in CWR22Rv1 cell lysates. DC50 indicating the concentration required to achieve 50% degradation, was calculated based on normalized full-length AR and AR-V7 band intensity. Dmax is the maximum degradation achieved at 20 μM compound treatment. TEXT PRINTED IN THE PICTURE: (a) ITRI-90: AR DC50 (μM) LNCaP: 2.12 ± 0.93; AR DC50 (μM) CWR22Rv1: 5.73 ± 2.28; AR DC50 (μM) VCaP: 8.67 ± 4.87; AR-V7 DC50 (μM) CWR22Rv1: 4.72 ± 2.52; AR-V7 DC50 (μM) VCaP: 0.29 ± 0.15; AR Dmax (%) LNCaP: 88; AR Dmax (%) CWR22Rv1: 98; AR Dmax (%) VCaP: 90; AR-V7 Dmax (%) CWR22Rv1: 100; AR-V7 Dmax (%) VCaP: 63 | (a) ITRI-125: AR DC50 (μM) LNCaP: 6.10 ± 4.43; AR DC50 (μM) CWR22Rv1: 6.64 ± 1.87; AR DC50 (μM) VCaP: 9.05 ± 3.75; AR-V7 DC50 (μM) CWR22Rv1: 1.89 ± 1.06; AR-V7 DC50 (μM) VCaP: 0.52 ± 0.37; AR Dmax (%) LNCaP: 71; AR Dmax (%) CWR22Rv1: 96; AR Dmax (%) VCaP: 85; AR-V7 Dmax (%) CWR22Rv1: 99; AR-V7 Dmax (%) VCaP: 67 | (a) ITRI-126: AR DC50 (μM) LNCaP: 3.41 ± 3.13; AR DC50 (μM) CWR22Rv1: 0.11 ± 0.02; AR DC50 (μM) VCaP: 0.851 ± 0.43; AR-V7 DC50 (μM) CWR22Rv1: 0.011 ± 0.003; AR-V7 DC50 (μM) VCaP: 0.43 ± 0.19; AR Dmax (%) LNCaP: 99; AR Dmax (%) CWR22Rv1: 74; AR Dmax (%) VCaP: 94; AR-V7 Dmax (%) CWR22Rv1: 91; AR-V7 Dmax (%) VCaP: 82

Row | SMILES | DC50 | Dmax at 20 µM
1 | Cc1ncsc1-c1ccc(CNC(=O)[C@@H]2C[C@H](O)CN2C(=O)[C@@H](NC(=O)COCCCCOc2ccc(C3CCN(C4=Nn5c(nnc5C(F)(F)F)CC4)CC3)cc2)C(C)(C)C)cc1 [ITRI-90, (2S,4S)-1-((S)-3,3-dimethyl-2-(2-(4-(4-(1-(3-(trifluoromethyl)-7,8-dihydro-[1,2,4]triazolo[4,3-b]pyridazin-6-yl)piperidin-4-yl)phenoxy)butoxy)acetamido)butanoyl)-4-hydroxy-N-(4-(4-methylthiazol-5-yl)benzyl)pyrrolidine-2-carboxamide] | 2.12 ± 0.93 µM | 88%
2 | Cc1ncsc1-c1ccc(CNC(=O)[C@@H]2C[C@H](O)CN2C(=O)[C@@H](NC(=O)COCCCCCCOc2ccc(C3CCN(C4=Nn5c(nnc5C(F)(F)F)CC4)CC3)cc2)C(C)(C)C)cc1 [ITRI-125, (2S,4S)-1-((S)-3,3-dimethyl-2-(2-(6-(4-(1-(3-(trifluoromethyl)-7,8-dihydro-[1,2,4]triazolo[4,3-b]pyridazin-6-yl)piperidin-4-yl)phenoxy)hexyloxy)acetamido)butanoyl)-4-hydroxy-N-(4-(4-methylthiazol-5-yl)benzyl)pyrrolidine-2-carboxamide] | 6.1 ± 4.43 µM | 71%
3 | O=C1CCC(N2Cc3c(NC(=O)COCCCCOc4ccc(C5CCN(C6=Nn7c(nnc7C(F)(F)F)CC6)CC5)cc4)cccc3C2=O)C(=O)N1 (stereo not drawn) [ITRI-126, N-(2-(2,6-dioxopiperidin-3-yl)-1-oxoisoindolin-4-yl)-2-(4-(4-(1-(3-(trifluoromethyl)-7,8-dihydro-[1,2,4]triazolo[4,3-b]pyridazin-6-yl)piperidin-4-yl)phenoxy)butoxy)acetamide] | 3.41 ± 3.13 µM | 99%
